System: Homo sapiens
Assay: Evaluation of pharmacokinetic parameters for PERINDOPRIL and its active metabolite, PERINDOPRILAT,following single oral administration of PERINDOPRIL ERBUMINE tablets
Assay type: ADME, organism-based
Conditions: in vivo, dosed compound id 11, dosed compound name PERINDOPRIL ERBUMINE, tissue Plasma

Structure (SMILES)	F [%]	Protein binding [%]	Tmax [h]	t1/2-elimination [h]	t1/2 [h]
CC(C)(C)N.CCC[C@H](N[C@@H](C)C(=O)N1[C@H](C(=O)O)C[C@@H]2CCCC[C@@H]21)C(=O)OCC [PERINDOPRIL ERBUMINE]	75	60	1	0.8 to 1	
CCC[C@H](N[C@@H](C)C(=O)N1[C@H](C(=O)O)C[C@@H]2CCCC[C@@H]21)C(=O)O [PERINDOPRILAT]	25	10 to 20	3 to 7	30 to 120	3 to 10
